Measurements taken from patent US20060030616A1, “Anhydride modified cantharidin analogues useful in the treatment of cancer” (priority 1998, published 2006).

Tests used:
L1210 cells = assay: Checkpoint abrogation after 6 Gy radiation, flow cytometry; format: cell-based, murine; conditions: 12 h after drug
Experimental: (§1) The cells are fixed in 70% ethanol and stored at −20° C. until analysis is performed (1-2 weeks). After fixing, the cells are pelleted and incubated in PBS containing propidium iodide ([…]) and RNase A (200 mg/ml) for at least 30 min at room temperature. The samples (2×10^4 events) are analysed using a Becton Dickson FACScan, fluorescence is collected in fluorescence detector 2 (FL2), filter 575/30 nm band pass. Cell cycle distribution is assessed using Cell Quest software (Becton Dickson).
(§2) The ability of the protein phosphatase inhibitors to abrogate the G1 or G2 checkpoint of the cell cycle may be determined by cell cycle analysis using flow cytometry. Briefly, asynchronous cell cultures are harvested 18 h after 6 Gy irradiation and/or 12 h incubation with the protein phosphatase inhibitor. Depending upon the p53 status of the cell line, radiation treatment alone will induce arrest in either G1 and/or G2 phase of the cell cycle.
If the protein phosphatase inhibitor abrogates the G2 checkpoint then the cells will not arrest in the G2 phase of the cell cycle and the cells will continue through the cell cycle and accumulate in the G1 phase of the cell cycle only. Similarily if the protein phosphatase inhibitors abrogates the G1 checkpoint then the cells will not arrest in the G1 phase of the cell cycle and accumulate in the G2 phase of the cell cycle only. Cell cycle analysis using propidium iodide labelling of DNA has been used extensively in our laboratory to assess the effect of specific anticancer agents that induce S-phase cell cycle arrest and apoptotic cell death (Sakoff, Ackland and Stewart, 1998). Experiments were performed on a Becton Dickinson FACScan and using Cell Quest software.
The cells were treated with 6 Gy of radiation and then treated with cantharidin 6 h later. The ability to abrogate cell cycle arrest was assessed is 12 h after the addition of the drugs.

HCT116 cells = assay: Cell cycle analysis, flow cytometry of propidium iodide stained cells; format: cell-based, human
Experimental: as §1, §2
(§3) Data shown in Table 2 and FIG. 4 show the cell cycle response of L1210, HL60, HT29 and HCT116 cells to cantharidin and the new cantharidin analogues MK-2 and MK-4 after 12 h exposure. In summary, cantharidin and MK-2 produced a similar response and induced G2 arrest in all four cell lines tested. […] HL60 and HCT116 cells. […] The magnitude of the cell cycle arrest induced by these drugs directly correlated with their cytotoxicity in the respective cell lines. […] The cytotoxicity of the […]

HL60 cells = assay: as above; format: cell-based, human; conditions: for Cell Cycle Distribution, G1 / Cell Cycle Distribution, G2 + M / Cell Cycle Distribution, S / Cell Cycle Distribution, sub G1 / Cell cycle remark: 12 h
Experimental: as §1, §2, §3

HT29 cells = assay: as above; format: cell-based, human; conditions: for Cell Cycle Distribution, G1 / Cell Cycle Distribution, G2 + M / Cell Cycle Distribution, S / Cell Cycle Distribution, sub G1 / Cell cycle remark: 12 h
Experimental: as §1, §2, §3

`C[C@@]12C(=O)OC(=O)[C@]1(C)[C@H]1CC[C@@H]2O1` [Cantharidin, exo.exo-2.3-dimethyl-7-oxobicyclo[2.2.1]heptane-2,3-dicarboxylic acid anhydride] was tested, and the “Cell Cycle Distribution, G1” value (L1210 cells; L1210, 1 μM, 18 h after 6Gy) was 27.2 percentage of total, the “Cell Cycle Distribution, G2 + M” value (L1210 cells; L1210, 1 μM, 18 h after 6Gy) was 37.5 percentage of total and the “Cell Cycle Distribution, S” value (L1210 cells; L1210, 1 μM, 18 h after 6Gy) was 25.6 percentage of total. The “Cell Cycle Distribution, sub G1” value (L1210 cells; L1210, 1 μM, 18 h after 6Gy) was 1.6 percentage of total, the “Cell Cycle Distribution, G1” value (L1210 cells; L1210, 5 μM, 18 h after 6Gy) was 25.8 percentage of total and the “Cell Cycle Distribution, G2 + M” value (L1210 cells; L1210, 5 μM, 18 h after 6Gy) was 41.5 percentage of total. The “Cell Cycle Distribution, S” value (L1210 cells; L1210, 5 μM, 18 h after 6Gy) was 31.9 percentage of total, the “Cell Cycle Distribution, sub G1” value (L1210 cells; L1210, 5 μM, 18 h after 6Gy) was 2.4 percentage of total and the “Cell Cycle Distribution, G1” value (L1210 cells; L1210, 10 μM, 18 h after 6Gy) was 24.9 percentage of total. The “Cell Cycle Distribution, G2 + M” value (L1210 cells; L1210, 10 μM, 18 h after 6Gy) was 43.7 percentage of total, the “Cell Cycle Distribution, S” value (L1210 cells; L1210, 10 μM, 18 h after 6Gy) was 29.4 percentage of total and the “Cell Cycle Distribution, sub G1” value (L1210 cells; L1210, 10 μM, 18 h after 6Gy) was 3.4 percentage of total. The “Cell Cycle Distribution, G1” value (L1210 cells; L1210, 50 μM, 18 h after 6Gy) was 4.1 percentage of total, the “Cell Cycle Distribution, G2 + M” value (L1210 cells; L1210, 50 μM, 18 h after 6Gy) was 77.4 percentage of total and the “Cell Cycle Distribution, S” value (L1210 cells; L1210, 50 μM, 18 h after 6Gy) was 15.6 percentage of total. For the same compound, the “Cell Cycle Distribution, sub G1” value (L1210 cells; L1210, 50 μM, 18 h after 6Gy) was 4.9 percentage of total, the Checkpoint remark (L1210 cells; L1210, 50 μM, 18 h after 6Gy) was “G1 abrogation” and the “Checkpoint abrogation” value (L1210 cells; L1210, 6 Gy) was “abrogated radiation induced G1 arrest”. For the same compound, the “Cell Cycle Distribution, G1” value (HCT116 cells; HCT116, 1 μM, 12 h) was 39.9 percentage of total, the “Cell Cycle Distribution, G2 + M” value (HCT116 cells; HCT116, 1 μM, 12 h) was 41.9 percentage of total and the “Cell Cycle Distribution, S” value (HCT116 cells; HCT116, 1 μM, 12 h) was 17.2 percentage of total. The “Cell Cycle Distribution, sub G1” value (HCT116 cells; HCT116, 1 μM, 12 h) was 2.2 percentage of total, the “Cell Cycle Distribution, G1” value (HCT116 cells; HCT116, 5 μM, 12 h) was 39.9 percentage of total and the “Cell Cycle Distribution, G2 + M” value (HCT116 cells; HCT116, 5 μM, 12 h) was 41.8 percentage of total. The “Cell Cycle Distribution, S” value (HCT116 cells; HCT116, 5 μM, 12 h) was 16.8 percentage of total, the “Cell Cycle Distribution, sub G1” value (HCT116 cells; HCT116, 5 μM, 12 h) was 2.9 percentage of total and the “Cell Cycle Distribution, G1” value (HCT116 cells; HCT116, 10 μM, 12 h) was 38.0 percentage of total. For the same compound, the “Cell Cycle Distribution, G2 + M” value (HCT116 cells; HCT116, 10 μM, 12 h) was 42.0 percentage of total, the “Cell Cycle Distribution, S” value (HCT116 cells; HCT116, 10 μM, 12 h) was 14.9 percentage of total and the “Cell Cycle Distribution, sub G1” value (HCT116 cells; HCT116, 10 μM, 12 h) was 6.2 percentage of total. The “Cell Cycle Distribution, G1” value (HCT116 cells; HCT116, 50 μM, 12 h) was 25.1 percentage of total, the “Cell Cycle Distribution, G2 + M” value (HCT116 cells; HCT116, 50 μM, 12 h) was 48.1 percentage of total and the “Cell Cycle Distribution, S” value (HCT116 cells; HCT116, 50 μM, 12 h) was 17.8 percentage of total. The “Cell Cycle Distribution, sub G1” value (HCT116 cells; HCT116, 50 μM, 12 h) was 11.1 percentage of total, the Cell cycle remark (HCT116 cells; HCT116, 50 μM, 12 h) was “G2 arrest” and the “Cell cycle response” value (HCT116 cells; HCT116, 12 h exposure) was “G2 arrest”. For the same compound, the “Cell Cycle Distribution, G1” value (HL60 cells; HL60, 1 μM) was 44.0 percentage of total, the “Cell Cycle Distribution, G2 + M” value (HL60 cells; HL60, 1 μM) was 29.7 percentage of total and the “Cell Cycle Distribution, S” value (HL60 cells; HL60, 1 μM) was 26.1 percentage of total. For the same compound, the “Cell Cycle Distribution, sub G1” value (HL60 cells; HL60, 1 μM) was 1.5 percentage of total, the “Cell Cycle Distribution, G1” value (HL60 cells; HL60, 5 μM) was 41.4 percentage of total and the “Cell Cycle Distribution, G2 + M” value (HL60 cells; HL60, 5 μM) was 30.6 percentage of total. The “Cell Cycle Distribution, S” value (HL60 cells; HL60, 5 μM) was 27.7 percentage of total, the “Cell Cycle Distribution, sub G1” value (HL60 cells; HL60, 5 μM) was 1.7 percentage of total and the “Cell Cycle Distribution, G1” value (HL60 cells; HL60, 10 μM) was 41.8 percentage of total. For the same compound, the “Cell Cycle Distribution, G2 + M” value (HL60 cells; HL60, 10 μM) was 30.4 percentage of total, the “Cell Cycle Distribution, S” value (HL60 cells; HL60, 10 μM) was 27.5 percentage of total and the “Cell Cycle Distribution, sub G1” value (HL60 cells; HL60, 10 μM) was 1.7 percentage of total. For the same compound, the Cell cycle remark (HL60 cells; HL60, 10 μM) was “G2 arrest”, the “Cell Cycle Distribution, G1” value (HL60 cells; HL60, 50 μM) was 16.2 percentage of total and the “Cell Cycle Distribution, G2 + M” value (HL60 cells; HL60, 50 μM) was 34.7 percentage of total. The “Cell Cycle Distribution, S” value (HL60 cells; HL60, 50 μM) was 31.6 percentage of total, the “Cell Cycle Distribution, sub G1” value (HL60 cells; HL60, 50 μM) was 19.3 percentage of total and the Cell cycle remark (HL60 cells; HL60, 50 μM) was “Cell Death”. For the same compound, the “Cell cycle response” value (HL60 cells; HL60, 12 h exposure) was “G2 arrest”, the “Cell Cycle Distribution, G1” value (HT29 cells; HT29, 1 μM) was 46.2 percentage of total and the “Cell Cycle Distribution, G2 + M” value (HT29 cells; HT29, 1 μM) was 37.4 percentage of total. For the same compound, the “Cell Cycle Distribution, S” value (HT29 cells; HT29, 1 μM) was 7.8 percentage of total, the “Cell Cycle Distribution, sub G1” value (HT29 cells; HT29, 1 μM) was 9.0 percentage of total and the “Cell Cycle Distribution, G1” value (HT29 cells; HT29, 5 μM) was 47.4 percentage of total. The “Cell Cycle Distribution, G2 + M” value (HT29 cells; HT29, 5 μM) was 39.8 percentage of total, the “Cell Cycle Distribution, S” value (HT29 cells; HT29, 5 μM) was 9.3 percentage of total and the “Cell Cycle Distribution, sub G1” value (HT29 cells; HT29, 5 μM) was 4.0 percentage of total. The “Cell Cycle Distribution, G1” value (HT29 cells; HT29, 10 μM) was 42.7 percentage of total, the “Cell Cycle Distribution, G2 + M” value (HT29 cells; HT29, 10 μM) was 40.3 percentage of total and the “Cell Cycle Distribution, S” value (HT29 cells; HT29, 10 μM) was 14.6 percentage of total. For the same compound, the “Cell Cycle Distribution, sub G1” value (HT29 cells; HT29, 10 μM) was 2.8 percentage of total, the Cell cycle remark (HT29 cells; HT29, 10 μM) was “G2 arrest” and the “Cell Cycle Distribution, G1” value (HT29 cells; HT29, 50 μM) was 46.0 percentage of total. For the same compound, the “Cell Cycle Distribution, G2 + M” value (HT29 cells; HT29, 50 μM) was 26.0 percentage of total, the “Cell Cycle Distribution, S” value (HT29 cells; HT29, 50 μM) was 14.7 percentage of total and the “Cell Cycle Distribution, sub G1” value (HT29 cells; HT29, 50 μM) was 15.1 percentage of total. The Cell cycle remark (HT29 cells; HT29, 50 μM) was “Cell Death” and the “Cell cycle response” value (HT29 cells; HT29, 12 h exposure) was “G2 arrest”.
